Results as given in publication PMC11597478, “Kinin B1- and B2-Receptor Subtypes Contract Isolated Bovine Ciliary Muscle: Their Role in Ocular Lens Function and Intraocular Pressure Reduction” (Pharmaceuticals, 2024).
Where two headings read alike, the source gives them in different places. Peptide text beside a SMILES is read from it.

How the values were obtained:
rat uterus strips = details: B2-receptor-mediated contraction; ref [1],[2],[3],[18],[20],[23]; read-out: Functional potency, RUT, HP Site; cited from earlier work
Text: Table 2 Ability of BK and Des-Arg^9-BK to Contract Various Tissues of Different Species or to Mobilize Intracellular Ca^2+ in human Ocular Cells. | column: RUT

[1] = system: human trabecular meshwork (hTM) cells; details: [Ca2+]i mobilization, second value of cell; single B2-receptor subtype; ref [2],[8]; read-out: Functional potency, hTM Cells, HP Site; cited from earlier work
Text: (§1) Table 2 Ability of BK and Des-Arg^9-BK to Contract Various Tissues of Different Species or to Mobilize Intracellular Ca^2+ in human Ocular Cells. | column: hCM/hTM Cells

[2] = system: human ciliary muscle (hCM) cells; details: [Ca2+]i mobilization, first value of cell; single B2-receptor subtype; ref [2],[8]; read-out: Functional potency, hCM Cells, HP Site; cited from earlier work
Text: as §1

guinea pig taenia caeci = details: tissue contraction, ref [17],[18], cited from earlier work
Text: Table 2 Ability of BK and Des-Arg^9-BK to Contract Various Tissues of Different Species or to Mobilize Intracellular Ca^2+ in human Ocular Cells. | column: GPTC

[3] = system: recombinant B1 receptors expressed in host cells; details: ref [1]; read-out: binding affinity Ki, recombinant B1 receptor (rabbit); cited from earlier work
mouse bladder strips = details: first value of cell, undefined kinin receptor, ref [10], read-out: Functional potency, M/H BSTP, HP Site (mouse); cited from earlier work
Text: (§2) Table 2 Ability of BK and Des-Arg^9-BK to Contract Various Tissues of Different Species or to Mobilize Intracellular Ca^2+ in human Ocular Cells. | column: M/H BSTP

human bladder strips = details: second value of cell, undefined kinin receptor, ref [10], read-out: Functional potency, M/H BSTP, HP Site (human); cited from earlier work
Text: as §2

[4] = system: recombinant B1 receptors expressed in host cells; details: ref [1]; read-out: binding affinity Ki, recombinant B1 receptor (human); cited from earlier work
rat ileum = details: B1-receptor in rat ileum, contraction; ref [25]; read-out: Functional potency, RI, HP Site; cited from earlier work
Text: Table 2 Ability of BK and Des-Arg^9-BK to Contract Various Tissues of Different Species or to Mobilize Intracellular Ca^2+ in human Ocular Cells. | column: RI || In the current studies, both BK and Des-Arg^9-BK contracted the BCM in a biphasic fashion, indicating the involvement of both B1 and B2 receptors in the smooth muscle contraction process. Other agonist peptides related to BK also elicited similar profiles of contractility, thereby substantiating the effects of BK and Des-Arg^9-BK in this specific tissue. Furthermore, the role of both kinin receptor subtypes being responsible for contracting BCM in vitro was confirmed by sequentially recording the functional responses of the tissue in the presence of B1- and B2-receptor antagonists in numerous ...

guinea pig trachea = details: tissue contraction, ref [17],[18], cited from earlier work
Text: Table 2 Ability of BK and Des-Arg^9-BK to Contract Various Tissues of Different Species or to Mobilize Intracellular Ca^2+ in human Ocular Cells. | column: GPT

[5] = system: recombinant B1 receptors expressed in host cells; details: ref [1]; read-out: binding affinity Ki, recombinant B1 receptor (mouse); cited from earlier work
human umbilical vein = details: B2-receptor-mediated contraction; ref [1],[2],[3],[18],[20],[23]; read-out: Functional potency, HUV, HP Site; cited from earlier work
Text: Table 2 Ability of BK and Des-Arg^9-BK to Contract Various Tissues of Different Species or to Mobilize Intracellular Ca^2+ in human Ocular Cells. | column: HUV

[6] = system: bovine ciliary muscle (BCM) strips; assay: tissue or blood; assay type: cell-based; details: for share of the maximal contraction accounted for by the first high affinity/potency phase: biphasic C-R curve, BCM strips; for Max. Tension Generated During Contraction: freshly isolated BCM strips, Krebs 37 °C, 1 g load, 7–11 concentrations (0.1 nM–10 µM), mean ± SEM, 3–8 experiments
Experimental: The methods utilized in the current studies were adapted from Lograno and Romano [13] and Ohia et al., with some minor modifications. Fresh bovine eyeballs were obtained from a local abattoir (Fisher Ham and Meat Company, Houston, TX, USA) and transported to the laboratory in ice. Whole eyeballs were placed in warm oxygenated Krebs buffer solution for 30 min to ensure equilibration before dissection of the ciliary muscle. Briefly, the anterior segment was dissected out of whole eyeballs after an incision was made at the limbus. The anterior segment containing the cornea, anterior uvea, and lens was then inverted and the lens dislodged with a probe along with the attached vitreous humor. After removal of the vitreous humor and lens, the whole ciliary muscle (comprising both longitudinal and circular portions) was quickly isolated and dissected from the scleral spur and choroid. Muscle strips of 4–5 mm in length were cut and mounted in 25 mL organ baths containing oxygenated Krebs solution at 37 °C using a silk thread linked to an isometric strain gauge under a constant load of 1g tension. The tissues were then allowed to equilibrate for 30 min. Two ciliary muscle strips were prepared from each eyeball and four to eight strips were used for each series of experiments. The composition of the Krebs solution used (mM) was NaCl, 118; KCl, 4.8; CaCl2, 2.5; KH2PO4, 1.2; NaHCO3, 25; MgSO4, 2.0; dextrose, 10 and flurbiprofen, 0.003 (pH 7.4), all purchased from Sigma-Aldrich, St. Louis, MO (USA). […] A robust response was characterized as a single contraction that consistently yielded a tension in the muscle induced by carbachol of 0.15–0.3 gm. […] Tissue strips were then thoroughly rinsed with fresh buffer solution via a series of buffer additions and drainage activities to remove any residual muscarinic agonist, and the preload was readjusted prior to starting the actual study with kininergic ligands. Concentration–response studies employed 7–11 compound concentrations (0.1 nM to 10 µM) and data from multiple experiments were collected.
The contractile responses obtained were expressed as gram tension developed and as percentages of the maximum response of each of the compounds. GraphPad Prism 4.0 Software (San Diego, CA, USA) was then used to construct the concentration–response curves for the kinins and to derive the half-maximal stimulation potencies (EC50) of each phase of the bi-phasic curves and the values tabulated as previously described.

rat whole bladder = details: B2-receptor-mediated contraction; ref [1],[2],[3],[18],[20],[23]; read-out: Functional potency, RWB, HP Site; cited from earlier work
Text: Table 2 Ability of BK and Des-Arg^9-BK to Contract Various Tissues of Different Species or to Mobilize Intracellular Ca^2+ in human Ocular Cells. | column: RWB

[7] = system: bovine aortic endothelial cells; details: ref [21]; cited from earlier work
Text: Figure 2 Chemical structures of bradykinin and its key analogs and those of the selective B1- and B2-receptor antagonists. The amino acid composition and linkage to form bradykinin and its analogs (linear peptides) are depicted in the upper panel.

cloned B2 receptor [8] = details: ref [1]; read-out: Ki, cloned B2 receptor (rabbit); cited from earlier work
cloned B2 receptor [9] = details: ref [1]; read-out: Ki, cloned B2 receptor (mouse); cited from earlier work
cloned B2 receptor [10] = details: ref [1]; cited from earlier work

| SMILES | EC50 (rat uterus strips) [µM] | EC50 [1] [µM] | EC50 [2] [µM] | EC50 (rat ileum) [µM] | EC50 (human umbilical vein) [µM] | EC50 [6] [µM] | share of the maximal contraction accounted for by the first high affinity/potency phase [6] | Max. Tension Generated During Contraction [6] [gm tension] | also measured |
| --- | --- | --- | --- | --- | --- | --- | --- | --- | --- |
| N=C(N)NCCC[C@H](NC(=O)[C@H](Cc1ccccc1)NC(=O)[C@@H]1CCCN1C(=O)[C@H](CO)NC(=O)[C@H](Cc1ccccc1)NC(=O)CNC(=O)[C@@H]1CCCN1C(=O)[C@@H]1CCCN1C(=O)[C@@H](N)CCCNC(=N)N)C(=O)O [BK, Bradykinin] (H-RPPGFSPFR-OH; N-terminus and C-terminus assumed) | 0.003 | 0.001 | 0.0024 | 4.89 | 0.009 | 0.0009 ± 0.0003 | 40–60% | 0.07 ± 0.01 | EC50 (guinea pig taenia caeci; high potency site, read-out: Functional potency, GPTC, HP Site): 0.003 µM; EC50 (guinea pig taenia caeci; low potency site, read-out: Functional potency, GPTC, LP Site): 1 µM; Ki [3]: 5 µM; EC50 (mouse bladder strips): 1.2 µM; EC50 (human bladder strips): 5.1 µM; Ki [4]: 10 µM; EC50 (guinea pig trachea; high potency site, read-out: Functional potency, GPT, HP Site): 0.02 µM; EC50 (guinea pig trachea; low potency site, read-out: Functional potency, GPT, LP Site): 4 µM; Ki [5]: 0.2 µM; EC50 (rat whole bladder): 0.09 µM |
| CCCC[P+](CCCC)(CCCC)Cc1ccc(NC(=O)[C@H](Cc2ccc3ccccc3c2)NC(=NC2CCCCC2)NC2CCCCC2)cc1.[Cl-] [WIN-64338] | – | – | – | – | – | – | – | – | effect on cGMP production induced by Des-Arg^9-BK [7]: block the cGMP-producing effects of Des-Arg^9-BK |
| N=C(N)NCCC[C@H](N)C(=O)N1CCC[C@H]1C(=O)N1CCC[C@H]1C(=O)NCC(=O)N[C@@H](Cc1ccccc1)C(=O)N[C@@H](CO)C(=O)N1CCC[C@H]1C(=O)N[C@@H](Cc1ccccc1)C(=O)O [Des-Arg^9-BK, Des-Arg^9-Bradykinin] | > 1 | 3.6 | 4.2 | 0.0186 | > 1 | 0.03 ± 0.0019 | 40–60% | 0.06 ± 0.01 | Ki (cloned B2 receptor [8]): > 1 µM; Ki (cloned B2 receptor [9]): 6.4 µM; Ki (cloned B2 receptor [10]): 8.1 µM |
